Data as given in patent US8992444B2, “Devices, systems, and methods for determining isometric and isotonic activity of luminal organs” (DTherapeutics, LLC, priority 2005, dated 2015).

How the values were obtained:
[1] = system: carotid and femoral arteries; experiment: isovolumic myograph, vasoactivity of arterial segments; set-up: species or system Wistar rats; conditions: concentration-dependent contraction, FIG. 2
Procedure: Six Wistar rats weighing 300-350 g were used in the study. The animals were anesthetized with sodium pentobarbital (60 mg/kg, ip). A heating pad was used to maintain the body temperature of the animal during anesthesia. The left carotid and common femoral arteries of the rat were exposed and cannulated for blood pressure measurements. This was done to measure the in vivo difference in blood pressure between carotid and femoral arteries. Several 1 cm segments of right carotid and femoral arteries were excised and immediately stored in 4° C. physiological saline solution (PSS).
The samples were then prepared to be tested in the exemplary isovolumic myograph according to the present disclosure as shown in FIG. 1. To prepare the samples, PSS was first contained in an organ bath with a controlled heating system and warmed to 37° C. […]
Vessel 3 and pressure transducer 5 are isolated from the pressure system when vessel 3 is pressurized and the two stopcocks 6 and 7 are closed to vessel 3. […] The changes of the pressure are recorded. […]
The dosage-dependent vasoconstriction in response to phenylephrine was recorded. The dosage- and endothelium-dependent vasodilatation in response to acetylcholine was also recorded in phenylephrine pre-constriction. The dosage-dependent and endothelium-independent vasodilatation in response to sodium nitroprusside (SNP) was recorded in phenylephrine pre-constriction. […]

[2] = system: aorta, femoral artery, and mesenteric artery; experiment: isovolumic myography, dose-dependent vasoconstriction and vasodilatation; set-up: species or system Wistar male rats; conditions: 10^−5 mole/l; three types of arteries at physiological pressure
Procedure: Animals and tissue preparation. […] Six aorta, six femoral arteries, and six mesenteric arteries were harvested from eighteen rats. The animals were acclimated to the testing facility for approximately one week prior to the start of the study. On the day of termination, each animal was first anesthetized with sodium pentobarbital (80 mg/kg, i.p.) and euthanized by overanesthesia with sodium pentobarbital ([…], i.p.). Either the aorta, common femoral artery, or mesenteric artery were excised quickly and placed in ice-cold physiological saline solution (PSS in mmole/L: 119 NaCl, 4.7 KCl, 25 NaHCO3, 1.17 KH2PO4, 1.17 MgSO4, 1.6 CaCl, 5.5 Dextrose, solution gassed by 95% O2/5% CO2). The artery was carefully cleaned from adjacent tissue with the aid of a stereo-dissection microscope. The branches on the artery were ligated and the artery was allowed to warm up to room temperature (22° C.) slowly in approximately 10-15 min. The artery was transferred to the chamber of isovolumic system and cannulated with connectors and secured with 8-0 suture twice to avoid any leakage. The artery was warmed up to 37° C. slowly (20-25 min) and equilibrated for 40 min at a transmural pressure of 15 mmHg before agonist and antagonist stimulation.
Isovolumic myography. […]

`CNC[C@H](O)c1cccc(O)c1` [phenylephrine] was tested, and the “concentration at which the pressure in the vessel reached a maximum” value [1] was 3 µmol/L and the “increase in intraluminal pressure” value [2] was 30 to 40 mmHg.
